These results are taken from PMC6934184, “Selective DNA-PKcs inhibition extends the therapeutic index of localized radiotherapy and chemotherapy” (The Journal of Clinical Investigation, 2019).

The structures appear in SMILES notation.

For the assay, the target named is T1, CAMK2B (CaMKII beta) (Homo sapiens, UniProt Q13554).
T1 construct: purchased Thermo Fisher Scientific (Life Technologies) SelectScreen
The experiment in a line: SelectScreen Z'LYTE. The class given is biochemical. A digest of the protocol:
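SelectScreen broad panel; activity (Z'LYTE, Adapta) plus binding formats. ATP: Km app for CSF1R Z'LYTE; 10 for CAMK1 Adapta. Readout = % per kinase.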

T1 sequence (Q13554 whole entry): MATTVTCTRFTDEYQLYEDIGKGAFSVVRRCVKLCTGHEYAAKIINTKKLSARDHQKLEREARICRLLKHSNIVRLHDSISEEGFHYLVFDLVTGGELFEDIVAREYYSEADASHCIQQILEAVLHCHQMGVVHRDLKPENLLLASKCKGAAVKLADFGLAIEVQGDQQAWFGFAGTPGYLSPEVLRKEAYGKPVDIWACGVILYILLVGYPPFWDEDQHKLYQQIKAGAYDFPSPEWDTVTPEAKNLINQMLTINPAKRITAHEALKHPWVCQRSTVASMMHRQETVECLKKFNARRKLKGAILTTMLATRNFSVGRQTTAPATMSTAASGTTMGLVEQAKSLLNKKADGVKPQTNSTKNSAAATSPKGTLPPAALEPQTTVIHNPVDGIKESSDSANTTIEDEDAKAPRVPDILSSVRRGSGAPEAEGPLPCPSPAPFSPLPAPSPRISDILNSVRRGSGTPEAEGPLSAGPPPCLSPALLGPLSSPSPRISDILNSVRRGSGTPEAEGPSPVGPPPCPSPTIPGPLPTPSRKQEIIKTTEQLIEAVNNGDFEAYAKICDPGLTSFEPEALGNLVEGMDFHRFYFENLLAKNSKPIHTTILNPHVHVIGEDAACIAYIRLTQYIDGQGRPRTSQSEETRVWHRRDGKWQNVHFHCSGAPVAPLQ

The inhibition is the relative decrease from the control value, in per cent. For the compound `CN(C(=O)CN1CCOCC1)c1ccc2sc3c(-c4cccc5c(=O)cc(N6CC7CCC(C6)O7)oc45)cccc3c2c1` [NU5455], the inhibition at 1 µM came out at 0.7%.
